For 40 compounds, AC50 and activity change, negative = cytotoxicity results are on record in PubChem BioAssay AID977619 (Broad Institute, 2014).

Each structure is given as a SMILES string. “And” between values parts separate entries of the source, which are not always exact repeats. Equal values may be shown once. The source made the active and inactive calls.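 How the source made its calls: active means viability signal falls, with AC50 at or below a set limit tied to the top tested dose; inconclusive means flat curve with moderate signal loss, or poor fit; inactive means the rest, including rising signal.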

One assay relates to HepG2 viability, CellTiter-Glo ATP luminescence, 72 h. The assay is described as follows: viability loss in HepG2 hepatoma cells – cell-based, CellTiter-Glo luminescence, dry powder, set 13, cytotoxicity control, dose response (AID 977619).
Settings: not given
For orientation: In ATP-based viability assays light output follows the ATP content of the culture.
A word on the AC50: it is the concentration giving half of the maximal activity seen. For the compound `Cc1csc(NC(=O)c2cc(S(=O)(=O)N(C)C)ccc2N2CCCC2)n1`, the AC50 was > 60 µM (inactive).

Regarding `Cc1cnc(NC(=O)c2cc(S(=O)(=O)N3CCCC3)ccc2N2CCCC2)s1`, the AC50 was > 60 µM (inactive).

System in a further assay: not listed separately
The description is as above. Conditions: HepG2 viability, CellTiter-Glo ATP luminescence, 72 h; at 30 µM (top of the series).
Regarding `Cc1cnc(NC(=O)c2cc(S(=O)(=O)N(C)C)ccc2N2CCC2)s1`, the activity change, negative = cytotoxicity is -16.2% (inactive). The same measure, in the same setting: next, `Cc1cnc(NC(=O)c2cc(S(=O)(=O)N(C)C)ccc2N2CCNCC2)s1`: 2.09% (inactive). On the same count and under the same terms, next, `Cc1ccccc1NC(=O)c1cc(S(=O)(=O)N(C)C)ccc1N1CCCC1`: -8.5% (inactive). Same read-out and setting: next, `Cc1cnc(NC(=O)c2cc(S(=O)(=O)N(C)C)ccc2N(C)C)s1`: -8.52% (inactive).

Take `CN(C)S(=O)(=O)c1ccc(N2CCCC2)c(C(=O)NC2CCCCC2)c1`: the activity change, negative = cytotoxicity is -17.5% (inactive). Same read-out and setting: next, `Cc1cnc(NC(=O)c2cc(S(=O)(=O)N(C)C)ccc2N2CCCC2)s1`: -11% (inactive) and -24.4% (inactive). `CN(C)S(=O)(=O)c1ccc(N2CCCC2)c(C(=O)Nc2ccccc2)c1`: the activity change, negative = cytotoxicity is -16.8% (inactive).

In the case of `Cc1cnc(NC(=O)c2cc(S(=O)(=O)NCc3ccccc3)ccc2N2CCCC2)s1`, the activity change, negative = cytotoxicity was -8.91% (inactive).

`Cc1nnc(NC(=O)c2cc(S(=O)(=O)N(C)C)ccc2N2CCCC2)s1`: the activity change, negative = cytotoxicity is -4.85% (inactive).

As to `Cc1cnc(NC(=O)c2cccc(S(=O)(=O)N(C)C)c2)s1`, the activity change, negative = cytotoxicity was 0.262% (inactive). On the same count and under the same terms, next, `COc1cccc2sc(NC(=O)c3cc(S(=O)(=O)N(C)C)ccc3N3CCCC3)nc12`: -0.843% (inactive); `Cc1ccc(NC(=O)c2cc(S(=O)(=O)N(C)C)ccc2N2CCCC2)cc1`: -24% (inactive). Take `Cc1cnc(NC(=O)c2cc(S(=O)(=O)N(C)c3ccccc3)ccc2N2CCCC2)s1`: the activity change, negative = cytotoxicity was 2.13% (inactive). Consider `COc1ccc(NC(=O)c2cc(S(=O)(=O)N(C)C)ccc2N2CCCC2)cc1`, for which the activity change, negative = cytotoxicity was -5.62% (inactive). Same read-out and setting: next, `Cc1cnc(NC(=O)c2cc(S(=O)(=O)N3CCOCC3)ccc2N2CCCC2)s1`: -27.5% (inactive); `Cc1cnc(NC(=O)c2cc(S(=O)(=O)N3CCNCC3)ccc2N2CCCC2)s1`: -16.2% (inactive); `CN(C)CCCN(Cc1cc2ccccc2[nH]c1=O)C(=O)Nc1ccccc1`: -20.2% (inactive).

Regarding `Cc1nc(NC(=O)c2cc(S(=O)(=O)N(C)C)ccc2N2CCCC2)n[nH]1`, the activity change, negative = cytotoxicity is 7.89% (inactive). Same read-out and setting: next, `CN(C)S(=O)(=O)c1ccc(N2CCCC2)c(C(=O)Nc2nc3ccccc3s2)c1`: -28% (inactive); `COc1ccc2sc(NC(=O)c3cc(S(=O)(=O)N(C)C)ccc3N3CCCC3)nc2c1`: 12.7% (inactive). Same read-out and setting: next, `CN(C)S(=O)(=O)c1ccc(N2CCCC2)c(C(=O)Nc2ccccc2F)c1`: 0.657% (inactive). Same read-out and setting: next, `COc1ccccc1NC(=O)c1cc(S(=O)(=O)N(C)C)ccc1N1CCCC1`: -1.12% (inactive).

For `CN(C)C(=O)c1cc(S(=O)(=O)N(C)C)ccc1N1CCCC1`, the activity change, negative = cytotoxicity is -5.71% (inactive). As to `Cc1cnc(NC(=O)c2cc(S(=O)(=O)N(C)C)ccc2N2CCCCC2)s1`, the activity change, negative = cytotoxicity was -24.5% (inactive). Take `CCN(CC)S(=O)(=O)c1ccc(N2CCCC2)c(C(=O)Nc2ncc(C)s2)c1`: the activity change, negative = cytotoxicity was -6.49% (inactive). The same measure, in the same setting: next, `CCN(CC)c1ccc(S(=O)(=O)N(C)C)cc1C(=O)Nc1ncc(C)s1`: -14.5% (inactive). On to `CN(C)S(=O)(=O)c1ccc(N2CCCC2)c(C(=O)Nc2cccc(F)c2)c1`, for which the activity change, negative = cytotoxicity was -10% (inactive).

`CN(C)S(=O)(=O)c1ccc(N2CCCC2)c(C(=O)N2CCOCC2)c1`: the activity change, negative = cytotoxicity was -23.2% (inactive). In the case of `CN(C)S(=O)(=O)c1ccc(N2CCCC2)c(C(=O)Nc2ccc(Br)cc2)c1`, the activity change, negative = cytotoxicity was 3.71% (inactive). As for `Cc1cnc(NC(=O)c2cc(S(=O)(=O)N3CCCCC3)ccc2N2CCCC2)s1`, the activity change, negative = cytotoxicity is -1.49% (inactive). Take `CN(C)CCCN(Cc1cc2ccccc2[nH]c1=O)C(=O)NCc1ccccc1`: the activity change, negative = cytotoxicity is -20.2% (inactive).

For the compound `CN(C)S(=O)(=O)c1ccc(N2CCCC2)c(C(=O)Nc2ccccc2Cl)c1`, the activity change, negative = cytotoxicity is 0.028% (inactive).

In the case of `CN(C)S(=O)(=O)c1ccc(N2CCCC2)c(C(=O)Nc2nccs2)c1`, the activity change, negative = cytotoxicity was -14.2% (inactive). Same read-out and setting: next, `COc1ccc2nc(NC(=O)c3cc(S(=O)(=O)N(C)C)ccc3N3CCCC3)sc2c1`: -15% (inactive); `CN(C)S(=O)(=O)c1ccc(N2CCCC2)c(C(=O)Nc2ccncc2)c1`: -16.4% (inactive); `Cc1cnc(NC(=O)c2cc(S(=O)(=O)N(C)C)ccc2C2CCCC2)s1`: 1.56% (inactive). For `CN(C)S(=O)(=O)c1ccc(N2CCCC2)c(C(=O)Nc2cccnc2)c1`, the activity change, negative = cytotoxicity was -8.96% (inactive). As to `Cc1cnc(NC(=O)c2cc(S(=O)(=O)N(CC(C)C)CC(C)C)ccc2N2CCCC2)s1`, the activity change, negative = cytotoxicity was 2.42% (inactive).
